Test results as given in US20090253745A1, “MODULATORS OF OCULAR OXIDATIVE STRESS” (SIRION THERAPEUTICS, INC., priority 2007, published 2009).

Assays:
SOD1 mutant mice = assay: Oxidative stress biomarkers (LH, MDA, NT immunoreactivity) in eye tissue of SOD1 mutant mice after eye drop treatment; assay type: in vivo, mouse; conditions: eye drops 40 mM TAPP1 in 45% β-cyclodextrin, one drop per day, 30 treatments over 6 weeks, versus vehicle
Source text: FIG. 9. TAPP1 reduces oxidative stress in SOD1 mutant mice. The evolution of oxidative stress and retinal pathology in SOD1 mutant mice, is preceded by the formation of lipid hydroperoxides (LH), and conjugates of malondialdehyde (MDA) and nitrotyrosine (NT). These conjugates are detected in situ using appropriate monoclonal antibodies. To determine the therapeutic efficacy of the TAPP compositions in vivo, we probed fixed sections of eye tissues for these biomarkers following treatment with either TAPP1 (eye drop formulation containing 40 mM TAPP1 in 45% β-cyclodextrin) or the TAPP1 vehicle (β-cyclodextrin alone). Mice (aged 3 months) were treated with one drop per day, 5 treatments per week for 6 weeks, for a total of 30 treatments. In these studies, areas of increased light intensity indicate increased amounts of LH, MDA or NT in the tissue sections.
A mouse which lacks, or is deficient in, the superoxide dismutase 1 (SOD1) enzyme, is used as a model of oxidative stress. Previous investigations have shown that the SOD1-deficient mouse manifests a phenotype which is consistent with age-related macular degeneration (i.e., formation of drusen, thickening of Bruch's membrane and choroidal neovascularization; Imamura, et. al, Proc Natl Acad Sci, 103: 11282-11287, 2006). Following examination of appropriate biomarkers of oxidative stress, the SOD mutant mice are treated with an eye drop formulation containing 40 mM TAPP1 in β-cyclodextrin. The treatment protocol is one drop per day, 5 treatments per week for 6 weeks, for a total of 30 treatments. SOD mutant mice in the control group receive only the TAPP1 vehicle. Following the treatment regime, mice are sacrificed and eyeglobes are enucleated, fixed and prepared for histological examination. The presence of oxidative stress biomarkers (lipid hydroperoxides, LH; malondialdehyde, MDA; and nitrotyrosine, NT) in the tissue sections were evaluated by immunohistochemistry (FIG. 9). […]

[1] = tested on: explants of wild-type mouse retina; assay: In vitro model of light-mediated oxidative stress: isoprostane release from retina explants; assay type: cell-based; conditions: intense light (~10,000 Lux), 2-day incubation
Source text: FIG. 6. Development of an in vitro model of light-mediated oxidative stress. An in vitro model of oxidative stress was developed to determine the therapeutic potency of the TAPP compositions. In this model, explants of wild-type mouse retina are placed into culture media and exposed to intense white light over a 2 day period. Control samples were exposed to subdued lighting (˜100 Lux). The formation of oxidized arachadonic acid (isoprostanes), which is a direct measure of oxidative stress in biological samples, was monitored with a commercially available assay kit (Cayman Chemical Company, Ann Arbor, Mich.).
FIG. 7. TAPP1 reduces light-mediated oxidative stress. The aforementioned in vitro assay of light-mediated oxidative stress was employed to determine the therapeutic potency of TAPP1. In this experiment, isoprostane released from retina explants was measured in the absence and presence of TAPP1 in subdued lighting (˜100 Lux) and during intense light exposure (˜10,000 Lux). […]
(§1) The compound TAPP1 (C18H24N4O3), MW 344.18, is formulated as described above. […] TAPP content of the supernatant is analyzed by a capillary reverse phase C18 column. […] The relative quantity of the TAPP is determined by area integration of the TAPP elution peak. […] Isoprostanes are measured with a commercially available in vitro assay kit.

in vitro = in vitro ADME; conditions: mouse; 1 mM TAPP1, anterior segments of twelve eyeglobes in 0.5 ml MEM, 37° C.; read-out: half-life of hydrolysis
Description: FIG. 2. In vitro hydrolysis of TAPP1 by anterior segments from mouse eyeglobes. Anterior segments were isolated from twelve wild-type mouse eyeglobes, and cultured in 0.5 ml of MEM media. TAPP1 was added to the culture to a final concentration of 1 mM, and the sample was incubated at 37° C. At 0, 1, 5, 15, 30, 60 and 120 min following incubation, 20 μl aliquot samples were removed from the culture. The aliquots were mixed with equal volume of ice-cold methanol, and incubated on ice for 10 min, followed by centrifugation at 25,000 g to precipitate proteins. TAPP1 content in the supernatant was analyzed by a capillary reverse phase C18 column. The relative quantity of TAPP1 was determined by integration of chromatographic peak area. […] Release of the two products of TAPP1 hydrolysis (designated HP-1 and HP-2) was […] to the rate of TAPP1 hydrolysis (not shown). Corneal esterases may be largely responsible for the hydrolysis of TAPP1.
as §1, with “above. A 40 mM solution of TAPP1 is used.” for “above.”

Structure (SMILES): CC1(C)CC(OC(=O)c2cc(-c3ccncc3)n[nH]2)CC(C)(C)N1[O] [TAPP1, 1-oxyl-2,2,6,6-tetramethylpiperidin-4-yl 3-(pyridin-4-yl)-1H-pyrazole-5-carboxylate]
- lipid hydroperoxide (LH) immunoreactivity in ocular tissue (SOD1 mutant mice): significantly reduced
- malondialdehyde (MDA) immunoreactivity in ocular tissue (SOD1 mutant mice): significantly reduced
- nitrotyrosine (NT) immunoreactivity in ocular tissue (SOD1 mutant mice): significantly reduced
- isoprostane release from retina explants [1]: significantly reduced
- half-life (in vitro): ~10 min
